Tests used:
[1] = cited from earlier work
Text: (§1) Chemokines are small proteins that have two main interaction partners: chemokine receptors, which are G protein-coupled receptors (GPCRs), and GAGs. The binding of chemokines to GAGs enables the formation of a chemokine concentration gradient, which is indispensable for leukocyte migration. Interfering with the interactions between GAGs and chemokines can be a useful therapeutic strategy to inhibit inflammation. The chemokine CXCL9 binds to CXCR3 and is characterized by a highly positively charged COOH-terminal tail. A CXCL9-derived peptide, CXCL9(74-103), consisting ...

[2] = tested on: cellular GAGs on HS+ (pgsB-618 clone 19) and HS- (pgsB-618 clone 16) CHO cells; test: Binding of TAMRA-labeled peptides to cellular GAGs, flow cytometry; format: cell-based, Chinese hamster; conditions: 0.24 nmol TAMRA-labeled peptide; for Binding to HS+ CHO cells compared with HS- CHO cells (MFI): 1 × 10^5 cells, 30 min on ice, Wilcoxon test; for Binding capacity for cellular GAGs (MFI ([HS+]–[HS−])), comparison of the peptides: n ≥ 7, Mann–Whitney test
Method: The binding of four different TAMRA-labeled peptides (KKAK-2mer, KKQK-3mer, KKKQQK-2mer and CXCL9(74-103)) to cellular GAGs on pgsB-618 clone 16 (HS^− CHO cells) and pgsB-618 clone 19 cells (HS^+ CHO cells) was assessed using flow cytometry. Since each peptide contains exactly one TAMRA-group connected to the N-terminus, this allows us to quantify the peptides by their fluorescence or absorbance.
(§2) First, the medium was discarded, the cells were washed with PBS and were detached with trypsin/EDTA at 37 °C. Subsequently, the cells were resuspended in medium and left at room temperature for 45 min, and afterwards on ice for 15 min. After centrifugation at 177 g and 4 °C for 7 min, the pellet was resuspended in PBS and the cells were kept on ice. For each condition, 1 × 10^5 cells in 100 μL PBS were used and 4.7% (v/v) FcR blocking reagent and 0.06% (v/v) Zombie Aqua fixable viability dye were added to the cells. Following incubation in the dark at room temperature for 20 min, a wash step with flow cytometry buffer was performed. Afterwards, 0.24 nmol TAMRA-labeled peptide was added to the cells. After incubation in the dark on ice for 30 min, a wash step with flow cytometry buffer was performed and, subsequently, the cells were fixed with 0.4% (v/v) formaldehyde in flow cytometry buffer and kept at 4 °C. Flow cytometric analysis was performed within the following 24 h using a BD LSRFortessa X-20 flow cytometer (BD Biosciences; Franklin Lakes, NJ, USA), and the results were analyzed using FlowJo software (BD Biosciences).
(§3) Flow cytometry data (Figure 7C and Figure S2) are represented as median. […] In the next step, either a Mann–Whitney test (for unpaired data) or a Wilcoxon test (for paired data) was used to compare the groups. Statistical analysis was performed using GraphPad Prism 8.3.0 software (GraphPad Software; San Diego, CA, USA).

CXCR3 = conditions: cited from earlier work
Text: as §1

[3] = tested on: cellular GAGs on HS+ and HS- CHO cells; test: Binding of TAMRA-labeled peptides to cellular GAGs in the presence of added soluble GAGs, flow cytometry; format: cell-based, Chinese hamster; conditions: versus no GAG, Kruskal–Wallis test, n ≥ 6; for Effect of added soluble HA on binding of the peptide to cellular GAGs (MFI ([HS+]–[HS−])): 0.24 nmol peptide with 0.03-3 μg HA (70–120 kDa); for Effect of added soluble HS on binding of the peptide to cellular GAGs (MFI ([HS+]–[HS−])): 0.24 nmol peptide with 0.03-3 μg HS; for Effect of added soluble heparin on binding of the peptide to cellular GAGs (MFI ([HS+]–[HS−])): 0.24 nmol peptide with 0.03-3 μg heparin
Method: as §2
Similarly, the binding of three TAMRA-labeled peptides (KKQK-3mer, KKKQQK-2mer and CXCL9(74-103)) to cellular GAGs on pgsB-618 clone 16 (HS^− CHO cells) and pgsB-618 clone 19 cells (HS^+ CHO cells) in the presence of added GAGs was assessed using flow cytometry. In this experiment, different doses (0.03, 0.1, 0.3, 1 or 3 μg) of heparin (heparin low in calcium; Iduron; Cheshire, UK), HS (GAG HS01 BN1; Iduron; Cheshire, UK) or HA (70–120 kDa; HA sodium salt 96144; Sigma-Aldrich; St. Louis, MO, USA) were added to the cells, simultaneously with 0.24 nmol of TAMRA-labeled peptide (vide supra).
as §3

[4] = cited from earlier work; remark: listed apart in the source
Text: No significant difference in affinity for HS was detected between the long (KKKQQK) and short (KKQK) GAG-binding motifs (Figure 2). […] This is consistent with the report that peptides containing multiple copies of the GAG-binding motifs XBBXBX and XBBBXXBX had higher affinity for heparin [30]. It is important to point out that CXCL9(74-103) had the ...

Row | Molecule | Binding to HS+ CHO cells compared with HS- CHO cells (MFI) [2] | Binding capacity for cellular GAGs (MFI ([HS+]–[HS−])), comparison of the peptides [2] | Effect of added soluble HA on binding of the peptide to cellular GAGs (MFI ([HS+]–[HS−])) [3] | Effect of added soluble HS on binding of the peptide to cellular GAGs (MFI ([HS+]–[HS−])) [3] | Effect of added soluble heparin on binding of the peptide to cellular GAGs (MFI ([HS+]–[HS−])) [3] | other results
1 | CC(=O)NC(CCCNC(=N)N)C(N)=O (stereo not drawn) [acetyl-Arg-amide] |  |  |  |  |  | Tighter binding to heparin than the corresponding acetyl-Lys-amide [1]: approximately 2.5 times
2 | * KKAKASASKKAKTT [KKAK-2mer] | bound significantly better to HS^+ CHO cells | lowest |  |  |  | 
3 | * KKKQKNGKKHQKKKVLKVRKSQRSRQKKTT [CXCL9(74-103), chemokine-derived peptide, the 30 COOH-terminal amino acids of the chemokine CXCL9, TAMRA-labeled] | bound significantly better to HS^+ CHO cells | significantly higher (p < 0.0001) compared with that of the three other peptides | no significant differences | statistically significant reduction of binding | statistically significant reduction of binding | Binding to and signaling through CXCR3 (CXCR3): lacks the capacity to bind to, and signal through, CXCR3
4 | * KKKQQKQSQSKKKQQKTT [KKKQQK-2mer] | bound significantly better to HS^+ CHO cells | significantly higher (p < 0.05) in comparison with the binding capacity of the KKAK-2mer | no significant differences | no significant differences | no significant differences | 
5 | * KKQKQSQSKKQKQSQSKKQKTT [KKQK-3mer] | bound significantly better to HS^+ CHO cells | significantly higher (p < 0.05) in comparison with the binding capacity of the KKAK-2mer | no significant differences | no significant differences | no significant differences | 
6 | AAARRARAAAARAKA [modified serglycin peptide in which Ala residues replaced all non-basic amino acids] |  |  |  |  |  | Decrease in heparin-binding affinity compared with native peptide YPARRARYQWVRCKP ([4]; Ala residues replaced all non-basic amino acids): 350 fold
7 | YPARRARYQWVRCKP |  |  |  |  |  | Heparin-binding affinity ([4]; fragment of native mouse serglycin core protein with BBXB motif): significant heparin-binding affinity

From article PMC8745253, “Affinity and Specificity for Binding to Glycosaminoglycans Can Be Tuned by Adapting Peptide Length and Sequence” (International Journal of Molecular Sciences, 2021)
